Read-outs that look alike come from different tables or passages of the source.
Legend:
OTR = target: T1, OTR (Homo sapiens, UniProt P30559); assay: Ca2+ mobilization in cells stably expressing OTR (FLIPR, antagonist mode); assay type: cell-based; conditions: OTR/HEK293 stably transfected cell line
T1 construct: expressed in transfected cells; host or cells: OTR/HEK293 stably transfected cell line
T1 sequence (P30559 1-389): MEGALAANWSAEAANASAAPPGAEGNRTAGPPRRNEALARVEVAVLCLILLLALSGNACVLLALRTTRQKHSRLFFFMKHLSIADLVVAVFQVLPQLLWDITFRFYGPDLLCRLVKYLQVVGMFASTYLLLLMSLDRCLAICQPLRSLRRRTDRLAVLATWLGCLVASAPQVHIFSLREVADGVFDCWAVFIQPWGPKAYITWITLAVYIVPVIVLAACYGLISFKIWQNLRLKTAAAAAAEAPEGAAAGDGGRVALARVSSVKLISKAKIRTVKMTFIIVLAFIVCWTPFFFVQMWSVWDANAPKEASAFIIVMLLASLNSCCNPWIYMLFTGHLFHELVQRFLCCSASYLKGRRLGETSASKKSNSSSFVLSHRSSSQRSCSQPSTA
Summary of the method: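 OTR/HEK293 stable cells (20,000 per well) were loaded with Fluo-4 Direct plus probenecid. Cells were pre-exposed to 10-point, 3-fold compound dilutions before agonist challenge at EC80, determined beforehand per cell line. FLIPR calcium fluorescence (Max-Min) was fitted in Prism.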

[1] = Pharmacokinetic determination in SD rats; assay type: in vivo; conditions: rat, female SD rats, plasma; for AUC(0-t): read-out: Area under the curve AUC0-t; for clearance: read-out: Clearance Cl; for half-life: read-out: Half-life T1/2 (converted)
Method: Test Example 3: Pharmacokinetic Determination in SD Rats
In this study, female SD rats were selected as test animals. The LC/MS/MS method was used to quantitatively determine the plasma drug concentrations of the test compounds at different time points after intravenous injection (2 mg/kg) or oral administration (5 mg/kg) in rats, so as to evaluate the pharmacokinetic profile of the test drugs in rats.
The example compounds of the present disclosure, made in house.
SD rats (female, 180-220 g, 6-8 weeks old, purchased from Beijing Vital River Laboratory Animal Technology Co., Ltd., with animal production license number SCXK (Beijing) 2021-0006).
Vehicle for intravenous administration: 5% DMSO+10% Solutol+85% Saline.
Vehicle for oral administration: 5% DMSO+95% PEG400.
The test compound, formulated as a clear solution or suspension, was administered to overnight-fasted SD rats via tail vein injection or oral gavage. For intravenous administration, blood samples (0.25 mL) were collected via jugular vein puncture at pre-dose (0 h) and 0.083, 0.25, 0.5, 1, 2, 4, 6, 8, and 24 h post-dose. The samples were placed into sodium heparin anticoagulant tubes, and the mixture was vortexed thoroughly and centrifuged at 6,000 rpm for 3 minutes at 4° C. For oral gavage, blood samples were collected via jugular vein puncture at pre-dose (0 h) and 0.083, 0.25, 1, 2, 4, 6, 8, and 24 h post-dose. The samples were placed into sodium heparin anticoagulant tubes, and the mixture was vortexed thoroughly and centrifuged at 6,000 rpm for 3 minutes. Plasma drug concentrations were determined using the LC-MS/MS method, and the relevant pharmacokinetic parameters were calculated using the non-compartmental model with linear-log trapezoidal method in Phoenix WinNonlin 8.2.0 pharmacokinetic software.

Structure (SMILES): CON=C1CC(CO)N(C(=O)c2ccc(-c3cccc(C#N)c3C)c3c2OCO3)C1 (single isomer, unassigned) [Example C0099]
- IC50 (OTR): 17.5 nM

Structure (SMILES): CO/N=C1/C[C@@H]([C@@H](C)O)N(C(=O)c2ccc(-c3cccc(C#N)c3C)cc2)C1 (single isomer, unassigned) [Example C0112]
- IC50 (OTR): 7.51 nM

Structure (SMILES): CO/N=C1/C[C@@H](CO)N(C(=O)c2ccc(-c3cccc(C#N)c3Cl)cc2)C1 [Example A0203, 2-Chloro-3-(4-[(2S, 4Z)-2-(hydroxymethyl)-4-(methoxyimino)pyrrolidine-1-carbonyl]phenyl)benzonitrile]
- IC50 (OTR): 20.8 nM
- AUC(0-t) ([1]; 2 mg/kg, IV (2 mpk)): 7160 ng·h/mL
- AUC(0-t) ([1]; 5 mg/kg, PO (5 mpk)): 16000 ng·h/mL
- clearance ([1]; 2 mg/kg, IV (2 mpk)): 4.66 mL/min/kg
- half-life ([1]; 2 mg/kg, IV (2 mpk)): 5.23 h
- half-life ([1]; 5 mg/kg, PO (5 mpk)): 5.97 h

Structure (SMILES): CO/N=C1/C[C@@H](CO)N(C(=O)c2ccc(-c3cccc(C#N)c3C)cc2)C1 [Example C0058, (S, Z)-4′-(2-(Hydroxymethyl)-4-(methoxyimino)pyrrolidine-1-carbonyl)-2-methyl-[1,1′-biphenyl]-3-carbonitrile]
- IC50 (OTR): 17.7 nM
- AUC(0-t) ([1]; 2 mg/kg, IV (2 mpk)): 4640 ng·h/mL
- AUC(0-t) ([1]; 5 mg/kg, PO (5 mpk)): 11400 ng·h/mL
- clearance ([1]; 2 mg/kg, IV (2 mpk)): 7.4 mL/min/kg
- half-life ([1]; 2 mg/kg, IV (2 mpk)): 3 h
- half-life ([1]; 5 mg/kg, PO (5 mpk)): 3.11 h

Structure (SMILES): CO/N=C1/C[C@@H](CO)N(C(=O)c2ccc(-c3cc(F)cc(C#N)c3C)c3c2OCCO3)C1 [Example C0152, (S,Z)-5-Fluoro-3-(8-(2-(hydroxymethyl)-4-(methoxyimino)pyrrolidine-1-carbonyl)-2,3-dihydrobenzo[b][1,4]dioxin-5-yl)-2-methylbenzonitrile]
- IC50 (OTR): 6.63 nM

— US20260248763A1 (BIO GENUINE (SHANGHAI) BIOTECH CO., LTD, priority 2023, published 2026)
